# Laboratory results: ChEMBL document CHEMBL1201862, “PubChem BioAssay data set” (2004)
# Activity calls are given as the source filed them.
# What was measured:
# [1] = target: T1, Tyrosine-protein phosphatase non-receptor type 22 (Homo sapiens, UniProt Q9Y2R2); assay: PTPN22 phosphatase inhibition, dose response, selectivity assay for STEP inhibitor project, biochemical (AID 624241); format: functional
# T1 sequence (Q9Y2R2 whole entry): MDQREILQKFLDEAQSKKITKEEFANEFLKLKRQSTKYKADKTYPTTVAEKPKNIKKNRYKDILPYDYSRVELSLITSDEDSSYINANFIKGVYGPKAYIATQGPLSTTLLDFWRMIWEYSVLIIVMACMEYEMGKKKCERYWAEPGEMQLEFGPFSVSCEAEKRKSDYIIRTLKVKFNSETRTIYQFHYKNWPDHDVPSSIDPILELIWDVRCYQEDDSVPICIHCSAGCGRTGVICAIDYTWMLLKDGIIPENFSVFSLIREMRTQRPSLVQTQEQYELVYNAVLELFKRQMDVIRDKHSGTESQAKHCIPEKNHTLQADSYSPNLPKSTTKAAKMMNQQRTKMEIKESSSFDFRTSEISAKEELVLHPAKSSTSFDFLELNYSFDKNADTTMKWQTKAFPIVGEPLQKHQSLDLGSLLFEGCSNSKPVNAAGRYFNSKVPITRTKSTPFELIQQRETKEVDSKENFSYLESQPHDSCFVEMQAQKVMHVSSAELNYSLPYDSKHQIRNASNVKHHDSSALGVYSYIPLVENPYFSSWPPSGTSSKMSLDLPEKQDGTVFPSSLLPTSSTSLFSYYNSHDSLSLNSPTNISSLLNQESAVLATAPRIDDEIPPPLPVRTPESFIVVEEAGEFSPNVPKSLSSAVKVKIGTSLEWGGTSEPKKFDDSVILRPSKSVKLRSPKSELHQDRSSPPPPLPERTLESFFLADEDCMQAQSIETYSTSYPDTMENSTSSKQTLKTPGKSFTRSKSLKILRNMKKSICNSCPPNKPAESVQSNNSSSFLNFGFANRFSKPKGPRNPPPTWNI
# [2] = target: T2, Carboxy-terminal domain RNA polymerase II polypeptide A small phosphatase 1 (Homo sapiens, UniProt Q9GZU7); assay: inhibitors of CTDSP1, concentration-response testing, biochemical assay, absorbance-based, actives from ultra-high-throughput screening (AID 540297); format: functional
# T2 sequence (Q9GZU7 whole entry): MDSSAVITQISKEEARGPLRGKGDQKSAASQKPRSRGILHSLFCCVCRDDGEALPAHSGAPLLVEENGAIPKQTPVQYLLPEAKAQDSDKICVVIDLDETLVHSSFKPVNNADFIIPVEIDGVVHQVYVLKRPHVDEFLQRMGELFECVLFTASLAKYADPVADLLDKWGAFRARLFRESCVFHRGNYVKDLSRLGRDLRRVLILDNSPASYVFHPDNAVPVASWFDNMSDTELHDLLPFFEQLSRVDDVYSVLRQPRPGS
# [3] = target: Dual specificity protein phosphatase 3 (Homo sapiens, UniProt P51452); assay: VHR phosphatase inhibition, dose response, selectivity assay for STEP inhibitor project, biochemical (AID 602374); format: functional; settings: read-out: IC50_Mean
# Dual specificity protein phosphatase 3, sequence (P51452 whole entry): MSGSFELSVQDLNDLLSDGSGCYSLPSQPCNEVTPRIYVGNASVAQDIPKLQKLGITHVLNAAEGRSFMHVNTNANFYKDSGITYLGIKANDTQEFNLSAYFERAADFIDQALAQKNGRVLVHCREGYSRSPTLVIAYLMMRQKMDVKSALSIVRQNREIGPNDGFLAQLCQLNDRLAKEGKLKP
# [4] = target: T3, Small ubiquitin-related modifier 1 (Homo sapiens, UniProt P63165); assay: inhibitors of SUMO1 peptide binding, dose response, biochemical, fluorescence polarization, uHTS hits (AID 624382); format: functional; settings: read-out: IC50_Mean
# T3 sequence (P63165 whole entry): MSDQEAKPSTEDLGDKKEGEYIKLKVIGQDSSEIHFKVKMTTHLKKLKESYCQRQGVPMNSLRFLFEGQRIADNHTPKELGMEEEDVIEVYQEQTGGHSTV
# SUMO-activating enzyme [5] = target: T4, SUMO-activating enzyme (Homo sapiens, UniProt Q9UBT2); assay: inhibitors of in vitro SUMOylation cascade, primary screen, biochemical, HTRF, uHTS (AID 2006); format: protein-complex assay
# T4 sequence (Q9UBE0 whole entry): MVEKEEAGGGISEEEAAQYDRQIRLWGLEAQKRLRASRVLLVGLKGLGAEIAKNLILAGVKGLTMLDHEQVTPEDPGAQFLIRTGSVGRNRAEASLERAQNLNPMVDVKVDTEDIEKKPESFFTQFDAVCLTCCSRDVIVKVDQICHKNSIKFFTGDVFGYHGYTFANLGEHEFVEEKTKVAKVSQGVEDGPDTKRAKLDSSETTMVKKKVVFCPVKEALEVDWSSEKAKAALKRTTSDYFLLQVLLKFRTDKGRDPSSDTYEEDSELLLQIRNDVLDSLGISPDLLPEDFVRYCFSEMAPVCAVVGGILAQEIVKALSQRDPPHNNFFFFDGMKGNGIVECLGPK
# T4 sequence (Q9UBT2 whole entry): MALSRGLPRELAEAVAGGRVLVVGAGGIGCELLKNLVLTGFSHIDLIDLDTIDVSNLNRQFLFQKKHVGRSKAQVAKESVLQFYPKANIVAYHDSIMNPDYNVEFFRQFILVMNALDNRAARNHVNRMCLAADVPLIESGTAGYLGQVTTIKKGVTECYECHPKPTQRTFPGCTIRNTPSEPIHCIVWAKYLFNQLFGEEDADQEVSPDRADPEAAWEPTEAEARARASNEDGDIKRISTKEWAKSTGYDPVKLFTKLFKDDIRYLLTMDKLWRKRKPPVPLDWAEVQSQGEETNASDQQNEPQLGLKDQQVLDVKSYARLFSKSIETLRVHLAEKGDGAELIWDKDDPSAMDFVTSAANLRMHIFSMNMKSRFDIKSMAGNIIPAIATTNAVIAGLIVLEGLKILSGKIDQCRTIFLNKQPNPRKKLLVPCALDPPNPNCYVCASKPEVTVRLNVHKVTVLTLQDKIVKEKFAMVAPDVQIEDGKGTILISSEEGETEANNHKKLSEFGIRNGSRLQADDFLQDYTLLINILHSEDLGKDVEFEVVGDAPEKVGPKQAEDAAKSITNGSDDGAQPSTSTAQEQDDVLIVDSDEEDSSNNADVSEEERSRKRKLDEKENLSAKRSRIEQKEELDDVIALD
# SUMO-activating enzyme [6] = target: T4, SUMO-activating enzyme; assay: SUMOylation inhibitor hit validation, confirmation, SUMOylation inhibitor project, biochemical, AlphaScreen (AID 2018); format: functional
# [7] = target: T5, Tyrosine-protein phosphatase non-receptor type 5 (Homo sapiens, UniProt P54829); assay: STEP phosphatase inhibitors, confirmation, biochemical, fluorescence intensity, uHTS hits (AID 602372); format: functional; settings: read-out: IC50_Mean
# T5 sequence (P54829 whole entry): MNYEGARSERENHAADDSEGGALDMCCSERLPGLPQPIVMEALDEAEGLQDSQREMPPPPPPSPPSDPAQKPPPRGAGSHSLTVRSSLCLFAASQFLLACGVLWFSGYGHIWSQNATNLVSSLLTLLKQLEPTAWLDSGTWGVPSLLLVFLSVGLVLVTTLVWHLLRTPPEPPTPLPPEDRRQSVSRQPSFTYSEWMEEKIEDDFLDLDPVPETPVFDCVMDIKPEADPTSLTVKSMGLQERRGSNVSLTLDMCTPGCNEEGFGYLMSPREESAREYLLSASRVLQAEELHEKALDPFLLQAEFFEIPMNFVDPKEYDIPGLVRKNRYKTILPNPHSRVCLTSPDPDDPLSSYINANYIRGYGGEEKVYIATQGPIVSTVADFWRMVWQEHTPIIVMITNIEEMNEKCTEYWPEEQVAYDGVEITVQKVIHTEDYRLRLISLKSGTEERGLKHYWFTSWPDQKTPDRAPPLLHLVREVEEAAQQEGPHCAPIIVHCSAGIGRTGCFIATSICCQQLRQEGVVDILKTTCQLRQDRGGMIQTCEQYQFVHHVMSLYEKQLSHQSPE
# [8] = target: T6, Low molecular weight phosphotyrosine protein phosphatase (Homo sapiens, UniProt P24666); format: functional; settings: read-out: IC50_Mean;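 also: Dose-response confirmation assay measuring inhibition of LMPTP enzyme activity by fluorescence intensity read-out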
# T6 sequence (P24666 whole entry): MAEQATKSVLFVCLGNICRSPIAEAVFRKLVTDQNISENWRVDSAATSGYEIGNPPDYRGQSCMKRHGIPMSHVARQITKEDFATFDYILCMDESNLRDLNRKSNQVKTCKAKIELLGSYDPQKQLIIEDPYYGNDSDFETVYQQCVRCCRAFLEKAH
# [9] = target: T7, Tyrosine-protein phosphatase non-receptor type 11 (Homo sapiens, UniProt Q06124); assay: SHP2 phosphatase inhibition, dose response, selectivity assay for STEP inhibitor project, biochemical (AID 602367); format: functional; settings: read-out: IC50_Mean
# T7 sequence (Q06124 whole entry): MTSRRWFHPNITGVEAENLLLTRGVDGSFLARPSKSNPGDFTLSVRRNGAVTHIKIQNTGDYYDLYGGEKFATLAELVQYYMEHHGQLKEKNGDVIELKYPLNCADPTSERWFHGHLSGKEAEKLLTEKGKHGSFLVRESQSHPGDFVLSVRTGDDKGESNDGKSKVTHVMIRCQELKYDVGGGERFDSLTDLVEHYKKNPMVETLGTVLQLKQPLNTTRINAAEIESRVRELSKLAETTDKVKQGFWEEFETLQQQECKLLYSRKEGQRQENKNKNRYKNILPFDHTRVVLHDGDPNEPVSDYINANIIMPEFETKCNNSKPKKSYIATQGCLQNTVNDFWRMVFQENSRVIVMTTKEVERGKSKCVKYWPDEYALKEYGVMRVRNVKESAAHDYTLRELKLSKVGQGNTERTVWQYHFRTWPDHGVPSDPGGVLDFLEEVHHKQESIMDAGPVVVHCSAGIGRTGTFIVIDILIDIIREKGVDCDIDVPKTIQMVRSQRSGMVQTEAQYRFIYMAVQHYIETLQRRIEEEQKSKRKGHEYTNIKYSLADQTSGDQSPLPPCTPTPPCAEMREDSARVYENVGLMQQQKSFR
# [10] = target: T3, Small ubiquitin-related modifier 1; assay: inhibitors of SUMO1 partner interactions, dose response, biochemical, FRET (AID 624383); format: functional; settings: read-out: IC50_Mean
# [11] = target: Botulinum neurotoxin type F (Clostridium botulinum, UniProt P30996); assay: High-throughput multiplex microsphere dose response for inhibitors of toxin protease, specifically Botulinum neurotoxin light chain F protease, compounds from Cherry Pick 02.; format: functional; settings: read-out: EC50_MICROM
# Botulinum neurotoxin type F, sequence (P30996 1-436 limits assumed): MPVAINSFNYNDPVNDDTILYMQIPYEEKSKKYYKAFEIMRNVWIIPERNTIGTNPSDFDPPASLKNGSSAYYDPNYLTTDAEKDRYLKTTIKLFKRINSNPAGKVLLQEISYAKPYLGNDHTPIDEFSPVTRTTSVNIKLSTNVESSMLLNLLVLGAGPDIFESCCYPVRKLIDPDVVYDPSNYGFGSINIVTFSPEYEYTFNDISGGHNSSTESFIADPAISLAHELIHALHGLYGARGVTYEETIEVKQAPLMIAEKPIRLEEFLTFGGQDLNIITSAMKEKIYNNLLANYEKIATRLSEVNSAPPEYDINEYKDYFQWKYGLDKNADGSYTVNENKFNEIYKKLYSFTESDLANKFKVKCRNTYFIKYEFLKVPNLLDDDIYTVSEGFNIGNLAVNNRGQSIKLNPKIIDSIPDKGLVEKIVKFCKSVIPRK
# Lethal factor = Lethal factor (Bacillus anthracis, UniProt P15917); assay: High-throughput multiplex microsphere dose response for inhibitors of toxin protease, specifically Lethal Factor protease, compounds from Cherry Pick 02.; format: functional; settings: read-out: EC50_MICROM
# Lethal factor, sequence (P15917 whole entry): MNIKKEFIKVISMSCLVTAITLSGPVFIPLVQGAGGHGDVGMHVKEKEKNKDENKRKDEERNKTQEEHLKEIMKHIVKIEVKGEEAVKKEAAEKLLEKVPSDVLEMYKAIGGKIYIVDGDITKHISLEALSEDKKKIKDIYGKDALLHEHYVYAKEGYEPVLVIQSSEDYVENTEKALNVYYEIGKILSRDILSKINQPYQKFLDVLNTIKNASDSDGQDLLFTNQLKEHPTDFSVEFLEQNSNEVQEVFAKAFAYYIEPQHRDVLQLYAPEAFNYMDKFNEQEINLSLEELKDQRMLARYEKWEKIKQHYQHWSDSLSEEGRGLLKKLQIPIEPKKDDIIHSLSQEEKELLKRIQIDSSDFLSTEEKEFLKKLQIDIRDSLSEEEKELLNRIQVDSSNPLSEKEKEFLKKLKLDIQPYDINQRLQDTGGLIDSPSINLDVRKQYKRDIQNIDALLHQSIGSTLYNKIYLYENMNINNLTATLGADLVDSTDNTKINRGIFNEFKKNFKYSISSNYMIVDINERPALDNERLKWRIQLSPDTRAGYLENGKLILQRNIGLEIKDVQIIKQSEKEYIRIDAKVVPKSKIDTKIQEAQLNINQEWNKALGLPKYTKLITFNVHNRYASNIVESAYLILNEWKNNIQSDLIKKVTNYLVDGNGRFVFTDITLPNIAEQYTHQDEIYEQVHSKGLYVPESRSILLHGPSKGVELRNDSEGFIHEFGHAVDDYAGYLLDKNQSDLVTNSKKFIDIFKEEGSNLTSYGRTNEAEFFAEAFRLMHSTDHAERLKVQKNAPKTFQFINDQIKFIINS
# Mu-type opioid receptor = Mu-type opioid receptor (Homo sapiens, UniProt P35372); format: functional, cell-based;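 also: U2OS cells with beta-arrestin recruitment to OPRM1 by beta-gal complementation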
# Mu-type opioid receptor, sequence (P35372 whole entry): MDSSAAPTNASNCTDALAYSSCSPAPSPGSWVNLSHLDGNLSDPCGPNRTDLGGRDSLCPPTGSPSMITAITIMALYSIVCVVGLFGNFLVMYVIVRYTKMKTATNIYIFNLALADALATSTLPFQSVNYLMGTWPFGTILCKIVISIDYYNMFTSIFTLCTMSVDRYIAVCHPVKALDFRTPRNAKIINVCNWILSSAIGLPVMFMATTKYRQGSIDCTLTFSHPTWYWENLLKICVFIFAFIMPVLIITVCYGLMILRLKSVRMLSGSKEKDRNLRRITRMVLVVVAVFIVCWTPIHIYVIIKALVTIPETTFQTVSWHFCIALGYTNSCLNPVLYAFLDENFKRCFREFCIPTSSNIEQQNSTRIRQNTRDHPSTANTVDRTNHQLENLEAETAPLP
# [12] = target: 5-hydroxytryptamine receptor 2A (Mus musculus, UniProt P35363); format: functional, cell-based;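 also: CHO-K1 cells with tagged receptor and beta-arrestin; agonist potency measured as compound-induced activation of the receptor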
# 5-hydroxytryptamine receptor 2A, sequence (P35363 whole entry): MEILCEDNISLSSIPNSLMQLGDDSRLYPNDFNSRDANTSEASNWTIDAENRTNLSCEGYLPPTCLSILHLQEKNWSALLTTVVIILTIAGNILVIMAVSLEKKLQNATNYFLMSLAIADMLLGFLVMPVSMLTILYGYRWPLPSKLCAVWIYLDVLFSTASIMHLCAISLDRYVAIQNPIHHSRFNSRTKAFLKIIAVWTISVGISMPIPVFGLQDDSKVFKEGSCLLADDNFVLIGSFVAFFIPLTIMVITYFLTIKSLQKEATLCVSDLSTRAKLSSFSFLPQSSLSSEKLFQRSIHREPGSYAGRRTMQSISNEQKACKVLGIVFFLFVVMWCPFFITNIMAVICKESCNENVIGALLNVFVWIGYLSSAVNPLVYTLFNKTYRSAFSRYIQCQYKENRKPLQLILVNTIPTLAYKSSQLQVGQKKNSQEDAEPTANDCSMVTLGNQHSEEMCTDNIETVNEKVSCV
# Galanin receptor type 3 = Galanin receptor type 3 (Homo sapiens, UniProt O60755); assay: Fluorescence-based cell-based primary high throughput dose response assay to identify antagonists of the Galanin Receptor 3 (GalR3).; format: functional
# Galanin receptor type 3, sequence (O60755 whole entry): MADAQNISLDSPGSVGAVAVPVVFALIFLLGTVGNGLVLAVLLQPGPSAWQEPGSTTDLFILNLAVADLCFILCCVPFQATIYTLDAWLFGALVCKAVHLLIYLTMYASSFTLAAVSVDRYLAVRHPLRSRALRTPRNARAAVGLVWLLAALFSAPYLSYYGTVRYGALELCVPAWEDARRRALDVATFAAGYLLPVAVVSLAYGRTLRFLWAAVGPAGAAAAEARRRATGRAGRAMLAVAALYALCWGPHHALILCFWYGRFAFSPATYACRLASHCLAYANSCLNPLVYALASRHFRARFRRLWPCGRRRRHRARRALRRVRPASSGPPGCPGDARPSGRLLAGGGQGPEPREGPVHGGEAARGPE
# cells = format: functional, cell-based; settings: HEK-CNG
# [13] = T. cruzi intracellular amastigote growth inhibition, dose response, imaging, CA-I/72 strain, bovine embryo skeletal muscle, dry powder (AID 651885); format: functional, cell-based
# [14] = T. cruzi growth inhibition in host cells, dose response, cell-based, plate reader, dry powder, set 2 (AID 652275); format: functional
# [15] = target: Kappa-type opioid receptor (Homo sapiens, UniProt P41145); assay: OPRK1 antagonists, late-stage follow-up, cell-based, fluorescence, dose response (AID 652032); format: functional
# Kappa-type opioid receptor, sequence (P41145 whole entry): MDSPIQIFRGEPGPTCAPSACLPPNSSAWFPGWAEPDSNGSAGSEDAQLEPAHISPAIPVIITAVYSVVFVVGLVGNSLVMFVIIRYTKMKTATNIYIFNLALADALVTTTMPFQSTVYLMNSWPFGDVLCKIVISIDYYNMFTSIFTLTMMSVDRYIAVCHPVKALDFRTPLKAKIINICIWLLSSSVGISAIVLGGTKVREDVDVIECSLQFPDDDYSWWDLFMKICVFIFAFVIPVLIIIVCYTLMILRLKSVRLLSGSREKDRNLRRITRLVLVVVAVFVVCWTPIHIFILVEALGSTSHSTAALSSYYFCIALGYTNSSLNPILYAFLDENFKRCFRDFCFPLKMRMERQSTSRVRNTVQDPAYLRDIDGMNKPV
smiles,measurement,setting,value
Cc1c(CC(=O)O)c(=O)oc2c(C)c(OCc3ccc(F)cc3Cl)ccc12,IC50,[1],12.7 µM (active)
same,IC50,[2],2.17 µM (active)
same,IC50,[3],3.68 µM (active)
same,IC50,[4],> 66.6 µM (inactive)
same,IC50,SUMO-activating enzyme [5],12.5 µM (active)
same,IC50,SUMO-activating enzyme [6],> 100 µM (inactive)
same,IC50,[7],5.58 µM (active)
same,IC50,[8],11.5 µM (active)
same,IC50,[9],2.48 µM (active)
same,IC50,[10],15.7 µM (active)
CCCCCCCCC(c1nc2cc(C)c(C)cc2[nH]1)n1c(=O)c(-c2ccccc2Br)nc2ccccc21 (centres undefined),EC50,[11],> 20 µM (inactive)
same,EC50,Lethal factor,17.9 µM (active)
O=C(c1ccco1)N1CCN(Cc2ccc(Br)cc2)CC1,EC50,Mu-type opioid receptor,92.4 µM (inactive)
same,EC50,[12],2.24 µM (active)
COC(=O)CSc1nc(N)c(C#N)c(-c2ccc(O)cc2)c1C#N,IC50,Galanin receptor type 3,> 29.9 µM (inactive)
same,EC50,cells,> 29.9 µM (inactive)
C[C@@H]1CN([C@@H](C)CO)C(=O)c2cccc(NC(=O)c3ccncc3)c2O[C@H]1CN(C)Cc1ccc(Cl)cc1,IC50,[13],0.02 µM (active)
same,AC50,[14],0.0633 µM (active)
COC(=O)c1cc(-c2ccccc2)cnc1N1CCC(NC2CCCCC2)CC1,IC50,[15],6.2 µM (active)
